Assays:
[1] = Exposure multiple in rat 5-day toxicology studies; assay type: in vivo; parameters: key to Exposure Multiple: ratio of tox-species AUC to target efficacious AUCss; details: for EM Score: based on the maximum exposure multiple achieved in the rat 5-day toxicology study; for Exposure Multiple: rat 5-day toxicology study, vs predicted human efficacious exposure
From the text: “Exposure multiple” as used herein, refers to an assessment of relative compound exposure in toxicology studies. The calculation of an exposure multiple is accomplished by comparing the exposure (AUC) achieved in a toxicology species relative to the target efficacious exposure at steady state (AUCss). The larger exposure multiple provides the opportunity to explore higher doses relative to efficacious concentration in clinical development. However, the exposure that results in an adverse toxicological outcome is unpredictable.
The calculation of an exposure multiple is accomplished by comparing the plasma exposure (AUC) achieved in a toxicology species relative to the target efficacious exposure at steady state (AUCss). […] In addition, this exposure multiple can allow for further exploration of the desired pharmacology due to the opportunity for a larger window established in toxicology studies. However, the exposure that results in a toxicological outcome in preclinical toxicology studies is unpredictable.
Human exposure multiple (EM) values shown relate to the fold increase in exposure achieved in rat 5-day toxicology studies for a given dose relative to the predicted efficacious exposure anticipated in human (based on cellular NL20 EC50 in vitro efficacy). The exposure multiple score is based on the maximum exposure multiple achieved in the given study. This allows relative comparison across compounds when also considering the administered dose. […] In the tables below, the following meanings apply for exposure multiple scores: “−” means <1; “+” means 1-10; “++” means 10-20; “+++” means 20-30; “++++” means 30-50; and “+++++” means >50.

AAT = target: T1, AAT (Homo sapiens, UniProt P01009, E366K); assay: Compound Quality score (potency in AAT functional assay multiplied by unbound clearance); details: compound potency (EC50) x unbound clearance; class symbols
T1 construct: expressed in transfected cells; host or cells: NL20 human bronchial epithelial cells (NL20-SI cell line), with doxycycline added alongside the compounds
From the text: As used herein, the term “Compound Quality” refers to the potency of a compound multiplied (x) by the compound's unbound clearance as measured using the assays described in Example 6.
The terms “unbound clearance” refer to unbound intrinsic clearance (unbound CLint) in hepatocytes—the intrinsic clearance a drug would have in the absence of protein binding. Unbound CLint=CLint,hep/fu,hep, where CLint,hep is intrinsic clearance in hepatocytes and fu,hep is unbound fraction in hepatocytes.
A key consideration for the selection of compounds suitable for clinical development is the projection of human dose as described in Equations 1-3. Two key parameters that comprise the dose equation are the unbound clearance of a compound and the plasma efficacious exposure (also referred to herein as compound potency). Together these parameters are known to one skilled in the art as a measurement of Compound Quality and suitability for advancement into clinical development. Thus, when evaluating AAT modulator compounds, one needs to consider both the potency and unbound clearance parameters (i.e., Compound Quality). The relationship between these two parameters can be challenging to predict.
The values provided in the table below are calculated by multiplying the EC50 of each of the compounds by the result from the clearance assay procedures described in Section C above and rounded to two significant figures. In the table below, the following meanings apply for Compound Quality (i.e., compound potency x unbound clearance) values: “++++” means ≤0.2; “+++” means >0.20 and ≤0.30; “++” means >0.30 and ≤0.40; “+” means >0.40 and ≤0.50.

T1 sequence (P01009 25-418 E366K): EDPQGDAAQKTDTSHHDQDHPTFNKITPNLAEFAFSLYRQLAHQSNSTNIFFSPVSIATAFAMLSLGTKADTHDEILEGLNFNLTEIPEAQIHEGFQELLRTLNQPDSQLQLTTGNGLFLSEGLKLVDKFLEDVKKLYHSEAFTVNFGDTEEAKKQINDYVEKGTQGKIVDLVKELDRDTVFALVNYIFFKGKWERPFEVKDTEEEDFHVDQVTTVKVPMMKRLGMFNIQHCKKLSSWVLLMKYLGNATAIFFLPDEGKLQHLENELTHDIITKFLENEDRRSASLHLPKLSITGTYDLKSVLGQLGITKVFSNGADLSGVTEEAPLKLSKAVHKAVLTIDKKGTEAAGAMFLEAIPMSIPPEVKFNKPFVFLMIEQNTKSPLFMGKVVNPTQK

Row | Structure (SMILES) | EM Score [1] | Compound Quality (AAT) | other results
1 | CC[C@@](O)(COC)c1c(-c2ccc(C(=O)O)cc2)c2c(F)c3[nH]ncc3cc2n1-c1ccc(F)cc1 [Compound 1, (S)-4-(8-Fluoro-5-(4-fluorophenyl)-6-(2-hydroxy-1-methoxybutan-2-yl)-1,5-dihydropyrrolo[2,3-f]indazol-7-yl)benzoic acid] | +++++ (“+++++” means >50) | ++++ (“++++” means ≤0.2) | Exposure Multiple ([1]; Bid dose 50 (daily 100)): 10; Exposure Multiple ([1]; Bid dose 200 (daily 400)): 82; Exposure Multiple ([1]; Bid dose 500 (daily 1000)): 126
2 | O=C(O)c1ccc(-c2c(C3CCOCC3)n(-c3ccc(F)c(F)c3)c3cc4cn[nH]c4cc23)cc1 [reference compound] | − (“−” means <1) | – | Exposure Multiple ([1]; Bid dose 300 (daily 600)): 0.4
3 | CC[C@@](O)(COC)c1c(-c2ccc(C(=O)O)cc2)c2c(F)c3[nH]ncc3cc2n1-c1ccc(F)c(OC)c1 [Compound 3, (S)-4-(8-fluoro-5-(4-fluoro-3-methoxyphenyl)-6-(2-hydroxy-1-methoxybutan-2-yl)-1,5-dihydropyrrolo[2,3-f]indazol-7-yl)benzoic acid] | +++++ (“+++++” means >50) | +++ (“+++” means >0.20 and ≤0.30) | Exposure Multiple ([1]; Bid dose 50 (daily 100)): 2; Exposure Multiple ([1]; Bid dose 200 (daily 400)): 17; Exposure Multiple ([1]; Bid dose 500 (daily 1000)): 60
4 | CC(C)(CC#N)c1c(-c2ccc(C(=O)O)cc2)c2cc3[nH]ncc3cc2n1-c1ccc(F)cc1 [reference compound] | + (“+” means 1-10) | – | Exposure Multiple ([1]; Bid dose 287.5 (daily 575)): 1.8
5 | CCC(O)(COC)c1c(-c2ccc(C(=O)O)cc2)c2cc3[nH]ncc3cc2n1-c1ccc(F)cc1 (stereo not shown) [reference compound] | ++ (“++” means 10-20) | – | Exposure Multiple ([1]; Bid dose 250 (daily 500)): 14
6 | CC[C@](O)(COC)c1c(-c2ccc(C(=O)O)cc2)c2cc3[nH]ncc3cc2n1-c1ccc(F)c(Cl)c1 [reference compound] | + (“+” means 1-10) | – | Exposure Multiple ([1]; Bid dose 100 (daily 200)): 2; Exposure Multiple ([1]; Bid dose 250 (daily 500)): 1; Exposure Multiple ([1]; Bid dose 500 (daily 1000)): 2
7 | CC[C@@](O)(COC)c1c(-c2ccc(C(=O)O)cc2)c2c(F)c3[nH]ncc3cc2n1-c1ccc(F)c(F)c1 [Compound 5, (S)-4-(5-(3,4-Difluorophenyl)-8-fluoro-6-(2-hydroxy-1-methoxybutan-2-yl)-1,5-dihydropyrrolo[2,3-f]indazol-7-yl)benzoic acid] | +++++ (“+++++” means >50) | ++++ (“++++” means ≤0.2) | Exposure Multiple ([1]; Bid dose 50 (daily 100)): 39; Exposure Multiple ([1]; Bid dose 150 (daily 300)): 114; Exposure Multiple ([1]; Bid dose 300 (daily 600)): 173
8 | CC[C@@](O)(COC)c1c(-c2ccc(C(=O)O)cc2)c2c(F)c3[nH]ncc3cc2n1-c1ccc(F)c(Cl)c1 [Compound 4] | ++++ (“++++” means 30-50) | +++ (“+++” means >0.20 and ≤0.30) | Exposure Multiple ([1]; Bid dose 50 (daily 100)): 8; Exposure Multiple ([1]; Bid dose 200 (daily 400)): 21; Exposure Multiple ([1]; Bid dose 400 (daily 800)): 32
9 | CC[C@](O)(COC)c1c(-c2ccc(C(=O)O)cc2)c2c(F)c3[nH]ncc3cc2n1-c1ccc(F)c(OC)c1 [Compound 8] | – | + (“+” means >0.40 and ≤0.50) | –
10 | CCC(O)(COC)c1c(-c2ccc(C(=O)O)c(C)c2)c2c(F)c3[nH]ncc3cc2n1-c1ccc(F)c(F)c1 (stereo not shown) [Compound 17] | – | +++ (“+++” means >0.20 and ≤0.30) | –
11 | CCOCC(O)(CC)c1c(-c2ccc(C(=O)O)cc2)c2c(F)c3[nH]ncc3cc2n1-c1ccc(F)c(F)c1 (stereo not shown) [Compound 11] | – | +++ (“+++” means >0.20 and ≤0.30) | –
12 | [2H]C([2H])([2H])OCC(O)(CC)c1c(-c2ccc(C(=O)O)cc2)c2c(F)c3[nH]ncc3cc2n1-c1ccc(F)cc1 (stereo not shown) [Compound 52] | – | ++ (“++” means >0.30 and ≤0.40) | –
13 | [2H]C([2H])([2H])OC[C@@](O)(c1c(-c2ccc(C(=O)O)cc2)c2c(F)c3[nH]ncc3cc2n1-c1ccc(F)c(C)c1)C([2H])([2H])C([2H])([2H])[2H] [Compound 57] | – | + (“+” means >0.40 and ≤0.50) | –
14 | [2H]C([2H])([2H])C([2H])([2H])C(O)(COC)c1c(-c2ccc(C(=O)O)cc2)c2c(F)c3[nH]ncc3cc2n1-c1ccc(F)c(OC)c1 (stereo not shown) [Compound 20] | – | ++ (“++” means >0.30 and ≤0.40) | –
15 | [2H]C([2H])([2H])Oc1cc(-n2c([C@@](O)(CC)COC)c(-c3ccc(C(=O)O)cc3)c3c(F)c4[nH]ncc4cc32)ccc1F [Compound 10] | – | ++ (“++” means >0.30 and ≤0.40) | –
16 | [2H]C([2H])([2H])C([2H])([2H])C(O)(COC)c1c(-c2ccc(C(=O)O)cc2)c2c(F)c3[nH]ncc3cc2n1-c1ccc(F)c(OC)c1 (stereo not shown) [Compound 47] | – | +++ (“+++” means >0.20 and ≤0.30) | –
17 | CCC(O)(COC)c1c(-c2ccc(C(=O)O)c(C)c2)c2c(F)c3[nH]ncc3cc2n1-c1ccc(F)c(F)c1 (stereo not shown) [Compound 39] | – | +++ (“+++” means >0.20 and ≤0.30) | –
18 | [2H]C([2H])([2H])Oc1cc(-n2c(C(O)(COC)C([2H])([2H])C([2H])([2H])[2H])c(-c3ccc(C(=O)O)cc3)c3c(F)c4[nH]ncc4cc32)ccc1F (stereo not shown) [Compound 46] | – | +++ (“+++” means >0.20 and ≤0.30) | –
19 | CCC(O)(COC)c1c(-c2ccc(C(=O)O)c(C)c2)c2c(F)c3[nH]ncc3cc2n1-c1ccc(F)c(OC)c1 (stereo not shown) [Compound 40] | – | +++ (“+++” means >0.20 and ≤0.30) | –
20 | [2H]C([2H])([2H])C([2H])([2H])C(O)(COC)c1c(-c2ccc(C(=O)O)cc2)c2c(F)c3[nH]ncc3cc2n1-c1ccc(F)c(F)c1 (stereo not shown) [Compound 34] | – | ++++ (“++++” means ≤0.2) | –
21 | [2H]C1([2H])C([2H])([2H])C([2H])([2H])[C@](O)(c2c(-c3ccc(C(=O)O)cc3)c3c(F)c4[nH]ncc4cc3n2-c2ccc(F)cc2)[C@@]([2H])(OC)C1([2H])[2H] [Compound 29] | – | ++++ (“++++” means ≤0.2) | –
22 | CCc1cc(-c2c(C(O)(CC)COC)n(-c3ccc(F)c(OC)c3)c3cc4cn[nH]c4c(F)c23)ccc1C(=O)O (stereo not shown) [Compound 49] | – | ++ (“++” means >0.30 and ≤0.40) | –
23 | [2H]C([2H])([2H])C([2H])([2H])C(O)(COC)c1c(-c2ccc(C(=O)O)cc2)c2c(F)c3[nH]ncc3cc2n1-c1ccc(F)c(Cl)c1 (stereo not shown) [Compound 12] | – | +++ (“+++” means >0.20 and ≤0.30) | –
24 | CC[C@@](O)(COC)c1c(-c2ccc(C(=O)O)cc2)c2c(F)c3[nH]ncc3cc2n1-c1ccc(F)c(C)c1 [Compound 2, (S)-4-(8-fluoro-5-(4-fluoro-3-methylphenyl)-6-(2-hydroxy-1-methoxybutan-2-yl)-1,5-dihydropyrrolo[2,3-f]indazol-7-yl)benzoic acid] | ++++ (“++++” means 30-50) | +++ (“+++” means >0.20 and ≤0.30) | Exposure Multiple ([1]; Bid dose 50 (daily 100)): 2; Exposure Multiple ([1]; Bid dose 200 (daily 400)): 10; Exposure Multiple ([1]; Bid dose 500 (daily 1000)): 40
25 | COCC(C)(C)c1c(-c2ccc(C(=O)O)cc2)c2cc3[nH]ncc3cc2n1-c1ccc(F)cc1 [reference compound] | ++ (“++” means 10-20) | – | Exposure Multiple ([1]; Bid dose 25 (daily 50)): 5; Exposure Multiple ([1]; Bid dose 50 (daily 100)): 13; Exposure Multiple ([1]; Bid dose 100 (daily 200)): 18
26 | [2H]C([2H])([2H])Oc1cc(-n2c(C(O)(CC)COC)c(-c3ccc(C(=O)O)c(C)c3)c3c(F)c4[nH]ncc4cc32)ccc1F (stereo not shown) [Compound 50] | – | ++ (“++” means >0.30 and ≤0.40) | –

Source: patent US20240158404A1, “MODULATORS OF ALPHA-1 ANTITRYPSIN” (Vertex Pharmaceuticals Incorporated, priority 2022, published 2024)
